Patent US20120022142A1, “RNA Interference Mediated Inhibition of Signal Transducer and Activator of Transcription 1 (STAT1) Gene Expression Using Short Interfering Nucleic Acid (siNA)” (Merck Sharp & Dohme Corp., priority 2009, published 2012)
[invAb] = inverted abasic unit; d = 2'-deoxy (DNA); m = 2'-O-methyl; r = 2'-OH (RNA); f = 2'-fluoro

Columns and labels:
STAT1 human mRNA = test: Initial screen of siNAs: STAT1 mRNA knock-down in A549 cells (96-well transfection, Taqman RT-PCR); format: cell-based; conditions: 10 nM siNA, 24 hrs, normalized against GAPDH, average of 2 experiments
Procedure: A549 (human; ATCC cat# CCL-185): Cells were cultured at 37° C. in the presence of 5% CO2 and grown in Ham's F12K medium with 2 mM L-glutamine adjusted to contain 1.5 g/L sodium bicarbonate and supplemented with fetal bovine serum at a final concentration of 10% and 100 μg/mL of streptomycin and 100 U/mL penicillin.
(§1) Cells were plated in all wells of a tissue-culture treated, 96-well plate at a final count of 5000 cells/well in 100 μL of the appropriate culture media. The cells were cultured for 24 hours after plating at 37° C. in the presence of 5% CO2.
(§2) After 24 hours, complexes containing siNA and RNAiMax were created as follows: A solution of RNAiMax diluted 33-fold in OPTI-MEM was prepared. In parallel, solutions of the siNAs for testing were prepared to a final concentration of 120 nM in OPTI-MEM. After incubation of RNAiMax/OPTI-MEM solution at room temperature for 5 min, an equal volume of the siNA solution and the RNAiMax solution were added together for each of the siNAs.
(§3) This solution was incubated at room temperature for 20 minutes. After incubation, 20 uL of the solution was added to each of the relevant wells. The final concentration of siNA in each well was 10 nM and the final volume of RNAiMax in each well was 0.3 ul.
(§4) The time of incubation with the RNAiMax-siNA complexes was 24 hours and there was no change in media between transfection and harvesting, unless otherwise indicated.
(§5) RNA was extracted from a 96-well plate using the TaqMan® Gene Expression Cells-to-CT™ Kit (Cat# 4399002) with a modified protocol. Briefly, a 60 uL (1 plate) or 110 uL (2 plates) of the Lysis Solution with DNase I was dispensed into each well of the Lysis Buffer Plate (twin.tec full skirt plate). The lysis buffer and stop plates were stored at 4° C. until the cells were washed.
(§6) The culture medium was aspirated and discarded from the wells of the culture plate. 50 uL of chilled DPBS was added to each well, then aspirated and discarded. The lysis was performed automatically using a BioMek FX instrument and method. After the Biomek method was completed, the lysis plate was incubated for 2 min at room temperature. The lysis plate can be stored for 2 hours at 4° C., or at −20° C. or −80° C. for two months.
(§7) Each well of the reverse transcription plate required 10 uL of 2× reverse transcriptase Buffer, 1 uL of 20× reverse transcription enzyme and 2 uL of nuclease-free water. The reverse transcription master mix was prepared by mixing 2× reverse transcription buffer, 20× reverse transcription enzyme mix, and nuclease-free water. 13 uL of the reverse transcription master mix was dispensed into each well of the reverse transcription plate (semi-skirted). A separate reverse transcription plate was prepared for each cell plate. The plate was loaded onto a Biomek NX or Biomek FX Dual-96 and the Biomek method was run. The program is programmed to automatically added 7 uL of lysate from the cell lysis procedure described above into each well of the reverse transcription plate. The plate is sealed and spun on a centrifuge (1000 rpm for 30 seconds) to settle the contents to the bottom of the reverse transcription plate. The plate is placed in a thermocycler at 37° C. for 60 min, 95° C. for 5 min, and 4° C. until the plate is removed from the thermocycler. Upon removal, if not used immediately, the plate was frozen at −20° C.
(§8) A series of probes and primers were used to detect the various mRNA transcripts of the genes of β-Actin (human cell line only), and of STAT1 and GAPDH in mouse and human cell lines. All Taqman probes and primers for the experiments here-in described were supplied as pre-validated sets by Applied Biosystems, Inc. (see Table 2).
The assays were performed on an ABI 7900 instrument, according to the manufacturer's instructions.
Within each experiment, the baseline was set in the exponential phase of the amplification curve, and based on the intersection point of the baselines with the amplification curve, a Ct value was assigned by the instrument. […]

STAT1 mouse mRNA = test: Initial screen of siNAs: STAT1 mRNA knock-down in NIH 3T3 cells (96-well transfection, Taqman RT-PCR); format: cell-based; conditions: 10 nM siNA, 24 hrs, normalized against GAPDH, average of 2 experiments
Procedure: NIH 3T3 (mouse; ATCC cat# CRL-1658): Cells were cultured at 37° C. in the presence of 5% CO2 and grown in Dulbecco's modified Eagle's medium (DMEM) with 4 mM L-glutamine adjusted to contain 1.5 g/L sodium bicarbonate and 4.5 g/L glucose and supplemented with fetal bovine serum at a final concentration of 10%, 100 μg/mL of streptomycin, and 100 U/mL penicillin.
as §1, §2, §3, §4, §5, §6, §7, §8
The assays were performed on an ABI 7900 instrument, according to the manufacturer's instructions. […]

Substance	% KD Human (STAT1 human mRNA)	% KD Mouse (STAT1 mouse mRNA)
25346-DC: STAT1 siNA duplex, human target site 837; modified strands SEQ ID NO: 29 and 30 (chain 1 CCUGGAAGAUUUACAAGAUTT; chain 2 AUCUUGUAAAUCUUCCAGGUU; chain 1: DNA at AGT, 2'-fluoro at CU, [invAb] at 5' end, 3' end, backbone not given here; chain 2: sugars from the 5' end rrrffmfmmmffffffmmmmm, backbone not given here)	62%	31%
25347-DC: STAT1 siNA duplex, human target site 2318; modified strands SEQ ID NO: 31 and 32 (chain 1 CUGAGAAUAUUCCUGAGAATT; chain 2 UUCUCAGGAAUAUUCUCAGUU; chain 1: DNA at AGT, 2'-fluoro at CU, [invAb] at 5' end, 3' end, backbone not given here; chain 2: sugars from the 5' end rrrffmmmmmfmfffffmmmm, backbone not given here)	93%	57%
25348-DC: STAT1 siNA duplex, human target site 746; modified strands SEQ ID NO: 33 and 34 (chain 1 GCACAGUGAUGUUAGACAATT; chain 2 UUGUCUAACAUCACUGUGCUU; chain 1: DNA at AGT, 2'-fluoro at CU, [invAb] at 5' end, 3' end, backbone not given here; chain 2: sugars from the 5' end rrrfffmmfmffmffmfmfmm, backbone not given here)	51%	37%
25349-DC: STAT1 siNA duplex, human target site 185; modified strands SEQ ID NO: 35 and 36 (chain 1 CCUGCGCGCAGAAAAGUUUTT; chain 2 AAACUUUUCUGCGCGCAGGUU; chain 1: DNA at AGT, 2'-fluoro at CU, [invAb] at 5' end, 3' end, backbone not given here; chain 2: sugars from the 5' end rrrfffffffmfmfmfmmmmm, backbone not given here)	91%	33%
25350-DC: STAT1 siNA duplex, human target site 190; modified strands SEQ ID NO: 37 and 38 (chain 1 GCGCAGAAAAGUUUCAUUUTT; chain 2 AAAUGAAACUUUUCUGCGCUU; chain 1: DNA at AGT, 2'-fluoro at CU, [invAb] at 5' end, 3' end, backbone not given here; chain 2: sugars from the 5' end rrrfmmmmfffffffmfmfmm, backbone not given here)	82%	31%
25352-DC: STAT1 siNA duplex, human target site 540; modified strands SEQ ID NO: 41 and 42 (chain 1 GCUGGAUGAUCAAUAUAGUTT; chain 2 ACUAUAUUGAUCAUCCAGCUU; chain 1: DNA at AGT, 2'-fluoro at CU, [invAb] at 5' end, 3' end, backbone not given here; chain 2: sugars from the 5' end rrrmfmffmmffmfffmmfmm, backbone not given here)	91%	34%
25353-DC: STAT1 siNA duplex, human target site 2253; modified strands SEQ ID NO: 43 and 44 (chain 1 CACGAAGAAAGAACUUUCUTT; chain 2 AGAAAGUUCUUUCUUCGUGUU; chain 1: DNA at AGT, 2'-fluoro at CU, [invAb] at 5' end, 3' end, backbone not given here; chain 2: sugars from the 5' end rrrmmmffffffffffmfmmm, backbone not given here)	86%	79%
25354-DC: STAT1 siNA duplex, human target site 678; modified strands SEQ ID NO: 45 and 46 (chain 1 GAAGGAAGAAAGGAAAAUUTT; chain 2 AAUUUUCCUUUCUUCCUUCUU; chain 1: sugars from the 5' end d17 f2 d2, [invAb] at 5' end, 3' end, backbone not given here; chain 2: sugars from the 5' end r3 f16 m2, backbone not given here)	91%	80%
25355-DC: STAT1 siNA duplex, human target site 1126; modified strands SEQ ID NO: 47 and 48 (chain 1 CUGCAGAACUGGUUCACUATT; chain 2 UAGUGAACCAGUUCUGCAGUU; chain 1: DNA at AGT, 2'-fluoro at CU, [invAb] at 5' end, 3' end, backbone not given here; chain 2: sugars from the 5' end rrrfmmmffmmffffmfmmmm, backbone not given here)	90%	35%
25356-DC: STAT1 siNA duplex, human target site 1115; modified strands SEQ ID NO: 49 and 50 (chain 1 GCUUGGAUCAGCUGCAGAATT; chain 2 UUCUGCAGCUGAUCCAAGCUU; chain 1: DNA at AGT, 2'-fluoro at CU, [invAb] at 5' end, 3' end, backbone not given here; chain 2: sugars from the 5' end rrrfmfmmffmmfffmmmfmm, backbone not given here)	43%	35%
25357-DC: STAT1 siNA duplex, human target site 2285; modified strands SEQ ID NO: 51 and 52 (chain 1 CUGACAUCAUUCGCAAUUATT; chain 2 UAAUUGCGAAUGAUGUCAGUU; chain 1: DNA at AGT, 2'-fluoro at CU, [invAb] at 5' end, 3' end, backbone not given here; chain 2: sugars from the 5' end rrrffmfmmmfmmfmffmmmm, backbone not given here)	93%	29%
25358-DC: STAT1 siNA duplex, human target site 1020; modified strands SEQ ID NO: 53 and 54 (chain 1 CACUGAACUUACCCAGAAUTT; chain 2 AUUCUGGGUAAGUUCAGUGUU; chain 1: DNA at AGT, 2'-fluoro at CU, [invAb] at 5' end, 3' end, backbone not given here; chain 2: sugars from the 5' end rrrffmmmfmmmfffmmfmmm, backbone not given here)	79%	17%
25359-DC: STAT1 siNA duplex, human target site 268; modified strands SEQ ID NO: 55 and 56 (chain 1 CGACAGUCUUGGCACCUAATT; chain 2 UUAGGUGCCAAGACUGUCGUU; chain 1: DNA at AGT, 2'-fluoro at CU, [invAb] at 5' end, 3' end, backbone not given here; chain 2: sugars from the 5' end rrrmmfmffmmmmffmffmmm, backbone not given here)	88%	47%
